Measurements as given in the NIST ThermoML archive (doi:10.1021/je0342320).

Conditions: Liquid, Vibrating tube method

CCCCCCCCCC [decane]
mass density [kg/m3]
Conditions | 283.15 K | 288.15 K | 293.15 K | 298.15 K | 303.15 K | 308.15 K | 313.15 K | 318.15 K | 323.15 K | 328.15 K
100 kPa | 737.4 | 733.69 | 729.94 | 726.19 | 722.46 | 718.65 | 714.79 | 710.99 | 707.17 | 703.3
5000 kPa | 740.81 | 737.19 | 733.53 | 729.88 | 726.23 | 722.52 | 718.83 | 715.08 | 711.4 | 707.67
10000 kPa | 744.17 | 740.63 | 737.08 | 733.52 | 729.98 | 726.36 | 722.76 | 719.13 | 715.55 | 711.97
15000 kPa | 747.39 | 743.93 | 740.5 | 737 | 733.55 | 730.01 | 726.52 | 722.99 | 719.49 | 716.03
20000 kPa | 750.49 | 747.14 | 743.76 | 740.37 | 736.98 | 733.55 | 730.14 | 726.69 | 723.28 | 719.87
25000 kPa | 753.52 | 750.22 | 746.92 | 743.6 | 740.29 | 737.01 | 733.61 | 730.22 | 726.9 | 723.57
30000 kPa | 756.43 | 753.19 | 749.98 | 746.72 | 743.46 | 740.13 | 736.95 | 733.65 | 730.37 | 727.1
35000 kPa | 759.27 | 756.11 | 752.94 | 749.72 | 746.54 | 743.26 | 740.17 | 736.93 | 733.71 | 730.51
40000 kPa | 762.02 | 758.92 | 755.79 | 752.67 | 749.5 | 746.32 | 743.25 | 740.05 | 736.93 | 733.79

COC(=O)OC [dimethyl carbonate]
mass density [kg/m3]
Conditions | 283.15 K | 288.15 K | 293.15 K | 298.15 K | 303.15 K | 308.15 K | 313.15 K | 318.15 K | 323.15 K | 328.15 K
100 kPa | 1083.17 | 1076.43 | 1069.76 | 1063.1 | 1056.41 | 1049.66 | 1042.86 | 1036.04 | 1029.21 | 1022.24
5000 kPa | 1087.33 | 1080.8 | 1074.22 | 1067.7 | 1061.17 | 1054.59 | 1047.94 | 1041.3 | 1034.63 | 1027.92
10000 kPa | 1091.39 | 1085.02 | 1078.58 | 1072.21 | 1065.82 | 1059.39 | 1052.91 | 1046.44 | 1039.95 | 1033.45
15000 kPa | 1095.34 | 1089.07 | 1082.76 | 1076.52 | 1070.29 | 1064 | 1057.67 | 1051.36 | 1045.04 | 1038.69
20000 kPa | 1099.13 | 1093 | 1086.83 | 1080.7 | 1074.59 | 1068.43 | 1062.22 | 1056.08 | 1049.91 | 1043.71
25000 kPa | 1102.79 | 1096.79 | 1090.73 | 1084.74 | 1078.74 | 1072.65 | 1066.6 | 1060.6 | 1054.58 | 1048.53
30000 kPa | 1106.39 | 1100.48 | 1094.5 | 1088.62 | 1082.75 | 1076.8 | 1070.82 | 1064.95 | 1059.07 | 1053.14
35000 kPa | 1109.85 | 1104.03 | 1098.19 | 1092.39 | 1086.6 | 1080.78 | 1074.93 | 1069.15 | 1063.39 | 1057.57
40000 kPa | 1113.17 | 1107.5 | 1101.74 | 1096.04 | 1090.35 | 1084.63 | 1078.87 | 1073.21 | 1067.56 | 1061.87
